According to BindingDB's records for doi:10.1021/jm00147a030 (1985):
pIC50: −log10 of the molar value.

What follows are compounds tested against Angiotensin-converting enzyme (Cavia porcellus) (assay: In vitro inhibitory activity against Angiotensin I converting enzyme from unpurified guinea pig serum).

Row | pIC50 | Compound
1 | 7.07 | CC(OC(CCc1ccccc1)C(=O)O)C(=O)N1Cc2ccccc2CC1C(=O)O (stereo not given)
2 | 7.85 | CCOC(=O)C(CCc1ccccc1)OC(C)C(=O)N1Cc2ccccc2CC1C(=O)O (stereo not given)
3 | 6.85 | CC(SC(CCc1ccccc1)C(=O)O)C(=O)N1C2CCCCC2C[C@H]1C(=O)O (stereo not given in full)
4 | 6.34 | CCOC(=O)C(CCc1ccccc1)SC(C)C(=O)N1Cc2ccccc2C[C@H]1C(=O)O (stereo not given in full)

Further lines, the compound ahead of its results:

Row | Compound | pIC50
5 | CCOC(=O)C(CCc1ccccc1)OC(C)C(=O)N1C(C(=O)O)CC2CCCCC21 (stereo not given) | 7.62
6 | CCOC(=O)C(CCc1ccccc1)SC(C)C(=O)N1CCCC1C(=O)O (stereo not given) | 5.54
7 | CCOC(=O)C(CCc1ccccc1)OC(C)C(=O)N1CCCC1C(=O)O (stereo not given) | 6.66
8 | CCOC(=O)C(CCc1ccccc1)[S+]([O-])C(C)C(=O)N1C2CCCCC2C[C@H]1C(=O)O (stereo not given in full) | 6.66
9 | CC(SC(CCc1ccccc1)C(=O)O)C(=O)N1CCC[C@H]1C(=O)O (stereo not given in full) | 6.24
10 | CCOC(=O)C(CCc1ccccc1)SC(C)C(=O)N1CSC[C@@H]1C(=O)O (stereo not given in full) | 5.32
